Positions of bridges follow the written chain, without caps; N, C: chain ends. Non-standard residues stand in square brackets, D forms with d. No end group written: not given here. Abu = CC[C@H](N)C(=O)O; Dhb = C/C=C(\N)C(=O)O; Dha = C=C(N)C(=O)O
Legend:
[1] = test system: E. faecium ATCC700221 (VRE); test: MIC assay, anaerobic broth dilution; assay type: cell-based, Enterococcus faecium; conditions: BHIS, 37 °C, 48 h, 3-fold serial dilution
From the text: Next, we set out to test the antimicrobial activities of these purified lantibiotics against a panel of Gram-positive bacteria that are representatives of some of the most prevalent human pathogens: VRE, Methicillin-resistant S. aureus USA300 (MRSA), Methicillin-resistant Staphylococcus epidermidis SK135 (MRSE), Listeria monocytogenes 10403S, and Clostridioides difficile VPI10463. We examined the growth of bacteria in a 96-well plate under a concentration gradient of lantibiotics under anaerobic conditions (Figure S2B). […]
(§1) For broth cultures, isolates were grown in pre-reduced BHI supplemented with 5 g/L yeast extract (Difco, BD) and 0.1% L-cysteine under anaerobic condition.
(§2) Minimal Inhibition Concentration (MIC) assay
(§3) All MIC assays were performed under anaerobic condition. Stationary bacterial culture in BHIS (BHI supplemented with 5 g/L yeast extract and 0.1% L-cysteine) were inoculated 1:100 to wells containing 200 µL BHIS in U-bottom 96-well plates. Lantibiotics were dissolved in DPBS, and concentrations were determined by BCA assay (Pierce) according to the manufacturer’s protocol.
(§4) Lantibiotic stock solutions were added to wells to reach desired final concentration, with 3-fold serial dilution across rows to create concentration gradients. Bacteria-inoculated wells without lantibiotics served as control. […]

[2] = test system: panel of Gram-positive human pathogens (VRE, MRSA, MRSE, L. monocytogenes, C. difficile); test: MIC assay against the panel of Gram-positive human pathogens; assay type: cell-based; conditions: pathogen panel, Figure 3A-E; anaerobic
From the text: Next, we set out to test the antimicrobial activities of these purified lantibiotics against a panel of Gram-positive bacteria that are representatives of some of the most prevalent human pathogens: VRE, Methicillin-resistant S. aureus USA300 (MRSA), Methicillin-resistant Staphylococcus epidermidis SK135 (MRSE), Listeria monocytogenes 10403S, and Clostridioides difficile VPI10463. We examined the growth of bacteria in a 96-well plate under a concentration gradient of lantibiotics under anaerobic conditions (Figure S2B).
(§5) Elution Buffer (4 M guanidine hydrochloride, 20 mM Tris HCl, pH 7.5 at 25 °C, 100 mM NaCl, 1 M imidazole). Peptides eluted from the Ni resin were concentrated and desalted using 3 kDa Amicon filters (Millipore). For leader peptide removal, the peptide (1:20 trypsin to peptide) was incubated with the trypsin protease in 50 mM Tris-HCl, pH 8 overnight at 37 °C. Lastly, the core peptides were further purified with HPLC using an Agilent 1200 instrument (Agilent) as specified in general methods. About 1.5 mg recombinant peptide was obtained after HPLC purification per […]
Purification of blauticin from Blautia producta SCSK
Stationary anaerobic culture of BPSCSK was inoculated 1:100 to 1 L BHIS. Culture was incubated on a heating plate at 37 °C with 220 rpm stirring for 2 days in an anaerobic chamber. Bacteria were pelleted with 15,000 x g centrifugation for 15 min. The supernatant was acidified with acetic acid to pH 5.5 and filtered through a 0.22 um filter. Filtered supernatant was loaded onto a HiTrap SP HP column using an AKTA Pure FPLC, which was eluted sequentially with 3 CV of distilled water, 200 mM NaCl, 400 mM NaCl, 600 mM NaCl, 800 mM NaCl, and 1 M NaCl. The 800 mM NaCl eluate was concentrated with a 3 kDa Amicon filter, followed by dialyzation with DPBS using a 3 kDa Amicon filter. Purification of blauticin was confirmed by SDS-PAGE, VRE inhibition in vitro assay, and MALDI-TOF MS. […]
as §1, §2, §3, §4

[3] = test system: Coprococcus eutactus MSK.18.32; test: MIC assay, anaerobic broth dilution; assay type: cell-based; conditions: Coprococcus eutactus MSK.18.32; anaerobic, BHIS, 37 °C, 48 h, 3-fold serial dilution
From the text: Antibiotic treatment may result in collateral damage to commensal bacteria in the human microbiome, leading to dysbiosis and susceptibility to various diseases.[44] How lantibiotics impact Gram-positive commensals from the human gut has remained unclear. Therefore, we performed antimicrobial activity tests of these lantibiotics against selected Gram-positive human gut commensals, most of which belong to the Lachnospiraceae family, one of the most abundant bacterial families in the human gut.[27] In general, human gut commensals were more susceptible to the set of investigated lantibiotics compared to pathogens (Figure 3).
as §5
All MIC assays were performed under anaerobic condition. […] Lantibiotics were dissolved in DPBS, and concentrations were determined by BCA assay (Pierce) according to the manufacturer’s protocol. […]

**Q.** What does the source list for “nisin A (I[Dhb]AI[Dha]LC[Abu]PGCK[Abu]GALMGCNMK[Abu]A[Abu]CHCSIHV[Dha]K; thioether 8-11, 13-19, 23-26, 25-28, 3-7; UniProt P13068 24-57, looked up) [prototypical class I lantibiotic produced by L. lactis, food preservative; commercial nisin A]”?
**A.** nisin A MIC [1]: 1.48 µM; inhibitory activity against pathogens based on MIC (ranking in words) [2]: strongest inhibitory activities; nisin A MIC [3]: 0.0110 µM

— PMC10877564, “Activity of Gut-Derived Nisin-like Lantibiotics against Human Gut Pathogens and Commensals” (ACS Chemical Biology, 2024)
